For one data set, the system named is DG-75 BL cells. Kind of data set: Annexin V/PI apoptotic assay (FACS). It counts as cell-based. As to conditions: 10 µM, 48 h, total (early + late) apoptosis. On the procedure:
(§1) The chemotherapeutic drug taxol was used as a positive control. The pro-apoptotic effects of the selected nitrostyrene compounds 11g, 11h, 11i, 11j, 11k and 11l (10 μM) were determined using FITC (fluorescein isothiocyanate), Annexin V/PI (propidium iodide) staining and FACS (fluorescence-activated cell sorting) analysis to characterise the mode of cellular death induced by the synthesised compounds. Four populations were produced in this assay: Annexin-V- and PI-negative (Q4, healthy cells), Annexin-V-positive and PI-negative (Q3, early apoptosis), Annexin-V- and PI-positive (Q2, late apoptosis) and Annexin-V-negative and PI-positive (Q1, necrosis), which were easily identified and quantified. Apoptosis was assessed as % total apoptosis by a combination of early and late apoptosis (Q3 and Q2, respectively). […] The identification of compounds that can induce apoptosis in cancer cells is required in the development of potential lead structures for anticancer drugs.
(§2) The BL cells DG-75 and MUTU-I (750,000) were treated at 37 °C with either vehicle (0.1% (v/v) EtOH), […] taxol (10 μM) and incubated for 24 h (MUTU-1) or 48 h (DG-75). The CLL cells PGA1 and HG3 (1 × 10^6 cells/mL) were treated at 37 °C with either vehicle (1% (v/v) DMSO) or the nitrostyrene compounds 19a (10 μM, 5 μM and 1 μM) and 19g, 19i, 19l and 19m (10 μM and 1 μM) for 48 h. The cells were then harvested by centrifugation at 400× g in a temperature-controlled Sorvall centrifuge and rinsed with 0.5 mL of Ca^2+ Annexin-V-binding buffer (0.1 M HEPES, pH 7.4; 0.14 M NaCl; 25 mM CaCl2). The samples were resuspended in 50 µL FITC Annexin V (diluted 1:33 in Ca^2+ Annexin V-binding buffer), incubated on ice for 10 min (protected from light), washed with Annexin-V-binding buffer and re-suspended in 500 µL of propidium iodide (PI) solution (0.5 µg/mL). The samples were analysed within 1 h using a BD Accuri C6 flow cytometer counting 10,000 cells and analysed using the FlowJo software (FlowJo LLC, Ashland, OR, USA) package.

The subject of a further data set is MUTU-I BL cells. Nature of the data set: Annexin V/PI apoptotic assay (FACS). Particulars: 10 µM, 24 h, total (early + late) apoptosis. In kind it is cell-based. On the procedure:
as §1, §2

The test system of data set [1] is DG-75 Burkitt’s lymphoma cell line. Particulars: nitrostyrenes, 48 h, cited from earlier work.
The test system of data set [2] is MUTU-I Burkitt’s lymphoma cell line. Particulars: nitrostyrenes, 24 h, cited from earlier work.
Data set [3] concerns MCF-7 human breast cancer cells. Nature of the data set: alamarBlue cell viability assay. As to conditions: MCF7, 72 h; for viability at 1 µM: read-out: % Viable Cells Remaining MCF-7 72 h 1 µM; for viability at 10 µM: read-out: % Viable Cells Remaining MCF-7 72 h 10 µM. On the technique in general: The colour change of resazurin is a common sign of viable cells or microbes.
The next data set has as its system MUTU-1 cells. Further details: method as in earlier work. As to conditions: nitrostyrenes and taxol, MTT assay, reported data; cited from earlier work. (Tetrazolium dyes change colour on reduction, which living cells bring about.)
Data set [4] has as its system HeLa cervical cancer cells. Kind of data set: alamarBlue cell viability assay. Particulars: Homo sapiens, 24 h; for viability at 1 µM: read-out: % Viable Cells Remaining HeLa 24 h 1 µM; for viability at 10 µM: read-out: % Viable Cells Remaining HeLa 24 h 10 µM.
Another data set relates to Bjab BL cell line. Nature of the data set: alamarBlue cell viability assay. Particulars: Homo sapiens, 24 h; for viability at 1 µM: read-out: % Viable Cells Remaining Bjab 24 h 1 µM; for viability at 10 µM: read-out: % Viable Cells Remaining Bjab 24 h 10 µM. It counts as cell-based. On the procedure: (§3) Cells were seeded at a density of 2.5 × 10^4 cells/well (MCF-7, MDA-MB-231 cells), 1 × 10^4 cells/well (HL-60 cells), 1–5 × 10^4 cells per well (BL MUTU-I, DG-75 cells) and 2 × 10^5 cells/well [HG-3, PGA-1 (CLL cells)], Ramos, BJAB (BL cells) (200 μL per well), in 96-well plates. Cells were treated with the desired drug concentration for the appropriate time for each cell type, and the samples were incubated as required. alamarBlue (20 μL) was then added to each well and the samples further incubated in the dark at 37 °C for 4 h. Wells containing only reagent and cell culture medium in the absence of cells were used as blank controls. Ethanol was used as a vehicle, and cells were treated with 1% ethanol (v/v) in all experiments. The 96-well plates were analysed on a fluorescence plate reader (SpectraMax Gemini, Molecular Devices) (emission and excitement wavelengths of 590 nm and 544 nm, respectively), and the fluorescence was recorded. The decrease in cell viability was then calculated with reference to the vehicle samples (100% viability). EMEM medium with the addition of alamarBlue was used as a blank. Vehicle-treated cells were considered to be 100% viable, and the viabilities of each compound was calculated accordingly. […] All biochemical assays were performed in triplicate on at least three independent occasions, and the mean values were determined.

Another data set concerns Ramos BL cell line. Kind of data set: alamarBlue cell viability assay. It counts as cell-based. As to conditions: Homo sapiens, 24 h; for viability at 1 µM: read-out: % Viable Cells Remaining Ramos 24 h 1 µM; for viability at 10 µM: read-out: % Viable Cells Remaining Ramos 24 h 10 µM. On the procedure: as §3
For another data set, the system named is DG-75 cells. Further details: method as in earlier work. As to conditions: nitrostyrenes and taxol, MTT assay, reported data; cited from earlier work.
Data set [5] relates to HL-60 promyelocytic leukaemia cells. Nature of the data set: alamarBlue cell viability assay. As to conditions: Homo sapiens, HL-60, 24 h; for viability at 1 µM: read-out: % Viable Cells Remaining HL60 24 h 1 µM; for viability at 10 µM: read-out: % Viable Cells Remaining HL60 24 h 10 µM.
The subject of another data set is HG-3 CLL cell line. Kind of data set: alamarBlue cell viability assay. As to conditions: 24 h; for viability at 10 µM: read-out: % Viability HG-3, 10 µM, 24 h.
The next data set relates to PGA-1 CLL cell line. Kind of data set: alamarBlue cell viability assay. Particulars: 24 h; for % Viability PGA-1: 10 µM; for viability at 1 µM / viability at 10 µM: CLL cell; for viability at 1 µM: read-out: % Viability PGA-1, 1 µM, 24 h; for viability at 10 µM: read-out: % Viability PGA-1, 10 µM, 24 h.
Data set [6] relates to MUTU-I Burkitt’s lymphoma cell line. Kind of data set: alamarBlue cell viability assay. As to conditions: MUTU-I, 24 h.
The test system is the same in data set [7]. As to conditions: human, 24 h, 10 µM.
The subject of data set [8] is DG-75 Burkitt’s lymphoma cell line. Kind of data set: alamarBlue cell viability assay. Particulars: Homo sapiens, DG-75, 48 h.
Data set [9] has the same test system. Particulars: human, 48 h, 10 µM.

Data on six molecules can be found in publication PMC10746112, “Synthesis and Pro-Apoptotic Effects of Nitrovinylanthracenes and Related Compounds in Chronic Lymphocytic Leukaemia (CLL) and Burkitt’s Lymphoma (BL)” (Molecules, 2023).

Structures are written as SMILES. Several values for one entry are separate records, joined by “and”; a condition that tells them apart may be missing. Identical values can stand only once.

By IC50 is commonly meant the midpoint of a concentration-inhibition curve. As usually defined, the melting point is the temperature of the solid-liquid transition.

Consider `C/C(=C\c1ccccc1Cl)[N+](=O)[O-]` [Compound 11g], for which, in the data set on DG-75 BL cells, the “DG-75 Apoptosis (%)” value turned out to be 70.6%. In addition, in the data set with MUTU-I BL cells, the “MUTU-I Apoptosis (%)” value is listed as 80.9%. Also, in data set [1], the “% Viable Cells Remaining DG-75 48 h 1 µM” value is on record as 75.86%. For the same molecule, the “% Viable Cells Remaining DG-75 48 h 10 µM” value in [1] was −0.08%. Moreover, the “% Viable Cells Remaining MUTU-1 24 h 1 µM” value in data set [2] was 44.16%. Besides, in data set [2], the “% Viable Cells Remaining MUTU-1 24 h 10 µM” value is on record as 14.91%. Also, the viability at 1 µM in data set [3] was found to be 81.4%; in data set [4], 87.1%; with Bjab BL cell line, 82.2%; with Ramos BL cell line, 53.4%; in [5] it was 73.4%. In addition, the viability at 10 µM in data set [3] stood at 41.7%; in [4], 34.2%; in the data set on Bjab BL cell line it was 51.9%; in the data set on Ramos BL cell line it was 7.7%; in data set [5], 16.5%. In addition, the IC50 in the data set with MUTU-1 cells was 820 nM; with DG-75 cells it was 2750 nM.
Turning to `C/C(=C\c1ccc(Cl)cc1)[N+](=O)[O-]` [Compound 11i], in the data set on DG-75 BL cells, the “DG-75 Apoptosis (%)” value is given as 86.4%. Also, the “MUTU-I Apoptosis (%)” value in the data set with MUTU-I BL cells stood at 84.5%. In addition, in data set [1], the “% Viable Cells Remaining DG-75 48 h 1 µM” value is 88.76%. Moreover, the “% Viable Cells Remaining DG-75 48 h 10 µM” value in data set [1] was 0.72%. Further, the “% Viable Cells Remaining MUTU-1 24 h 1 µM” value in data set [2] is 67.22%. The “% Viable Cells Remaining MUTU-1 24 h 10 µM” value in [2] is reported as 10.53%. Besides, the viability at 1 µM in data set [3] amounted to 103%; in data set [4], 93%; in the data set with Bjab BL cell line, 100%; in the data set on Ramos BL cell line, 62.6%; in data set [5], 104%. In addition, the viability at 10 µM came to 37.1% in [3]; 17.7% in data set [4]; 50.8% with Bjab BL cell line; 13.9% in the data set on Ramos BL cell line; 6.5% in [5]. Further, the half-maximal inhibitory concentration (IC50) was 1300 nM in the data set on MUTU-1 cells and 2750 nM with DG-75 cells.
With `CC/C(=C\c1ccccc1Cl)[N+](=O)[O-]` [Compound 11j, (E)-1-Chloro-2-(2-nitrobut-1-en-1-yl)benzene], the “DG-75 Apoptosis (%)” value in the data set with DG-75 BL cells was found to be 72.3%. Also, the “MUTU-I Apoptosis (%)” value with MUTU-I BL cells stood at 88.3%. For the same molecule, the “% Viable Cells Remaining DG-75 48 h 1 µM” value in data set [1] is given as 79.77%. The “% Viable Cells Remaining DG-75 48 h 10 µM” value in data set [1] is listed as 15.89%. In data set [2], the “% Viable Cells Remaining MUTU-1 24 h 1 µM” value is 64.31%. The “% Viable Cells Remaining MUTU-1 24 h 10 µM” value in data set [2] was 10.3% and 10.27%. The viability at 1 µM amounted to 98.1% in data set [3]; 95.3% in data set [4]; 102% with Bjab BL cell line; 66.9% with Ramos BL cell line; 6.31% in the data set on PGA-1 CLL cell line; 99.8% in data set [5]. Moreover, the viability at 10 µM turned out to be 20.7% in data set [3]; 21.8% in data set [4]; 68.9% in the data set with Bjab BL cell line; 4.4% in the data set with Ramos BL cell line; 5.61% in the data set with HG-3 CLL cell line (CLL cell); 0.43% in the data set with PGA-1 CLL cell line. In addition, the viability at 10 µM in [5] turned out to be 9.1%. Moreover, the concentration for half-maximal inhibition (IC50) in the data set with MUTU-1 cells is 2180 nM; in the data set with DG-75 cells, 2050 nM. Also, in the data set with PGA-1 CLL cell line, the “% Viability PGA-1” value is given as 0.53%.
With `CC/C(=C\c1cccc(Cl)c1)[N+](=O)[O-]` [Compound 11k], the “DG-75 Apoptosis (%)” value in the data set on DG-75 BL cells turned out to be 90.7%. For the same molecule, the “MUTU-I Apoptosis (%)” value in the data set on MUTU-I BL cells came out at 91.5%. The “% Viable Cells Remaining MUTU-1 24 h 10 µM” value in [2] is 2.39%. For the same molecule, the IC50 in the data set with MUTU-1 cells is 1220 nM; in the data set with DG-75 cells, 2360 nM. The “% Viability HG-3” value in the data set with HG-3 CLL cell line (10 µM) is 0.11%. In addition, the viability at 1 µM was 60.7% in the data set on HG-3 CLL cell line (CLL cell, read-out: % Viability HG-3, 1 µM, 24 h) and 3.26% in the data set on PGA-1 CLL cell line. In the data set on PGA-1 CLL cell line, the “% Viability PGA-1” value is 4.34%.
In the case of `CC/C(=C\c1ccc(Cl)cc1)[N+](=O)[O-]` [Compound 11l], the “DG-75 Apoptosis (%)” value with DG-75 BL cells is 85.0%. Moreover, the “MUTU-I Apoptosis (%)” value in the data set with MUTU-I BL cells was 91.3%. Besides, the “% Viable Cells Remaining MUTU-1 24 h 10 µM” value in data set [2] is 2.61%. Moreover, the IC50 with MUTU-1 cells was 1180 nM; in the data set on DG-75 cells, 3110 nM.
Molecule `O=[N+]([O-])CCc1c2ccccc2cc2ccccc12` [Compound 22, 9-(2-Nitroethyl)Anthracene] registered a melting point of 147 to 149 °C. Also, in the data set on HG-3 CLL cell line (CLL cell), the viability at 10 µM was determined as 76%. For the same molecule, the viability at 1 µM in data set [6] (read-out: % Viable Cells Remaining MUTU-1, 1 µM, 24 h) stood at 105%. Also, in [6] (read-out: % Viable Cells Remaining MUTU-1, 10 µM, 24 h), the viability at 10 µM was over 85%. Also, the “% Viable Cells Remaining MUTU-1” value in data set [7] is given as 100.6%. Besides, in data set [8] (read-out: % Viable Cells Remaining DG-75, 1 µM, 48 h), the viability at 1 µM was 86.7%. Besides, the viability at 10 µM in [8] (read-out: % Viable Cells Remaining DG-75, 10 µM, 48 h) is over 85%. Further, in the data set with PGA-1 CLL cell line, the viability at 10 µM is 75%. Further, the “% Viable Cells Remaining DG-75” value in data set [9] is given as 99.08%.
